Results as given in ChEMBL document CHEMBL4196101, “Dual Leucine Zipper Kinase Inhibitors for the Treatment of Neurodegeneration” (J Med Chem, 2018).

Biological target: Mitogen-activated protein kinase kinase kinase 12 (Homo sapiens) (UniProt Q12852)
Experiment: Inhibition of DLK (unknown origin) using myelin basic protein as substrate preincubated for 15 mins measured after 30 mins in presence of [gamma-32P]ATP by scintillation counting

Mitogen-activated protein kinase kinase kinase 12 (Homo sapiens), sequence (Q12852 whole entry, looked up): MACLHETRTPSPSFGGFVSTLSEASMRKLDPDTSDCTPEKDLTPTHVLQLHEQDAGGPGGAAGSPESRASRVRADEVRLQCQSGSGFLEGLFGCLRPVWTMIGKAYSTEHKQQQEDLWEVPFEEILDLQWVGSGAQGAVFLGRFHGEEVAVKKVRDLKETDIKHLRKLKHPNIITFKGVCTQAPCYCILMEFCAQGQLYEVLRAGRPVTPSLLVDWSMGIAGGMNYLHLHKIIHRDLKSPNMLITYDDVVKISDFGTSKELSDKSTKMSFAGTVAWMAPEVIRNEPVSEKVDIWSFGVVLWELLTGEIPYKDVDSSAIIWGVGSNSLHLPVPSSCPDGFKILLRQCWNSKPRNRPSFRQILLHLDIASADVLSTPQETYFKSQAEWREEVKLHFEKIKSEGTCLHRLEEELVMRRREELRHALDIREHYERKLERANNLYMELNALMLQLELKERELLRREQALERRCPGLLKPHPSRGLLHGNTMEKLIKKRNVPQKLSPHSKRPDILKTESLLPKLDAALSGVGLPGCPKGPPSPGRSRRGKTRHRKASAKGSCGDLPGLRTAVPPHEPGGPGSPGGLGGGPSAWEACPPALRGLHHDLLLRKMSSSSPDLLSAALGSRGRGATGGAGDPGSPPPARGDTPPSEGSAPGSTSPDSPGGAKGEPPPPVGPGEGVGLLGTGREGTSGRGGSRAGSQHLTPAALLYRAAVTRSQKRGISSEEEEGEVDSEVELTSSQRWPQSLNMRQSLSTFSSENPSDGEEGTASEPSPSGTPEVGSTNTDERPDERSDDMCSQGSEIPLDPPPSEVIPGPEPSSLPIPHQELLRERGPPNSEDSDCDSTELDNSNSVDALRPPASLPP

IC50: 0.114 µM
Compound: CCSCc1ccc2c(c1)c1c3c(c4c5cc(CSCC)ccc5n5c4c1n2[C@H]1C[C@](O)(C(=O)OC)[C@]5(C)O1)CNC3=O [CEP-1347]
